# System: human CD3+ T cells
# Conditions: T cells pre-incubated with 0.01 μM to 10 mM AMD3100; harvested after 3 h; anti-fugetactic at lower, fugetactic at higher concentrations
# Procedure: For quantitative transmigration assays, purified human CD3^+ T cells (approximately 2×10^4 cells) are added to the upper chamber of a Transwell® insert in each well, to a total volume of 150 μl of Iscove's modified medium. […] To determine the anti-fugetactic concentration of AMD3100, the T cells are incubated with 0.01 μM to 10 mM AMD3100 prior to addition to the chamber. Cells are harvested from the lower chamber after 3 h, and cell counts are performed using a hemocytometer.
compound,measurement,value
"c1cc(CN2CCCNCCNCCCNCC2)ccc1CN1CCCNCCNCCCNCC1 [AMD3100, 1,1′[1,4-phenylenebis(methylene)]bis [1,4,8,11-tetraazacyclotetradecane]]",Effect on T cell migration away from tumor cells (anti-fugetactic versus fugetactic),bimodal effect

# — US20180273897A1, “MODIFIED T-CELLS HAVING ANTI-FUGETACTIC PROPERTIES AND USES THEREOF” (THE GENERAL HOSPITAL CORPORATION, priority 2015, published 2018)
